Molecules are shown by their SMILES.

In US20250353860A1, “PIPERIDINE CARBOXAMIDE AZAINDANE DERIVATIVE, METHOD FOR PREPARING SAME, AND USE THEREOF” (BRISE PHARMACEUTICALS CO., LTD., priority 2022, published 2025) one finds IC50 and Ki data, which are given here for 10 compounds.

One test concerns the target T1, CGRP receptor (Homo sapiens, UniProt O60894+Q16602). As to the kind of experiment: Inhibition of CGRP signaling pathway (cAMP, HTRF) in SK-N-MC cells. Type of test: cell-based. The settings on record: [α-CGRP]=10 ng/mL; increase in cAMP levels; read-out: IC50 of the inhibitory effect on the CGRP signaling pathway in SK-N-MC cells. On the set-up: SK-N-MC (ATCC, HTB-10) cells endogenously expressing CGRP receptor; host or cells: SK-N-MC. Here is the method:
(§1) The inhibitory effect of the CGRP signaling pathway in vitro is evaluated by measuring the cAMP level. The principle is that after CGRP binds to the CGRP receptor, the CGRP signaling pathway is activated, inducing an increase in the cAMP level. […] The specific experimental method is as follows:
cAMP was determined using the CAMP-GS DYNAMIC KIT detection kit (Cisbio, 62AM4PEB).
SK-N-MC (ATCC, HTB-10) cells endogenously expressing CGRP receptor were cultured in EMEM+10% FBS medium and the cells were collected during the logarithmic growth phase. According to the instructions of the kit, the cells were resuspended in Stimulation Buffer comprising 0.5 mM IBMX, and 5 μL of the cell suspension was added to each well of a 96-well microplate (Cisbio, 66PL96025) at a cell density of 15,000 cells/well, 2.5 μL of gradient diluted compound solution was added to each well. After incubation at 37° C. for 30 minutes, 2.5 μL of 40 ng/ml human α-CGRP (Bachem, H-1470.0500) diluted in Stimulation Buffer comprising 0.5 mM IBMX was added to each well to a final concentration of 10 ng/ml. After incubation at 37° C. for 30 minutes, 5 μL of Anti-cAMP-Cryptate solution and 5 μL of cAMP-d2 solution were added to each well. After incubation at room temperature for 60 minutes, the HTRF signal was read using a microplate reader (Molecular Devices). Graphpad Prism was used to calculate the IC50 value of the compound's inhibitory effect on the increase in cAMP levels based on the compound concentration and HTRF signal.
(In general: Time-resolved FRET reads energy transfer from a long-lived donor to a nearby acceptor.)
Broadly, the IC50 is the midpoint of a concentration-inhibition curve. For `C[C@@H]1[C@H](c2c(F)ccc(F)c2F)C[C@H](NC(=O)c2nc3c(o2)CCC2(C3)C(=O)Nc3ncccc32)C(=O)N1CC(F)(F)F` (stereo partly drawn) [Example 12, N-((3S,5S,6R)-6-methyl-2-oxo-1-(2,2,2-trifluoroethyl)-5-(2,3,6-trifluorophenyl)piperidin-3-yl)-2′-oxo-1′,2′,6,7-tetrahydro-4H-spiro[benzo[d]oxazole-5, 3′-pyrrolo[2,3-b]pyridine]-2-carboxamide], the IC50 worked out at 53.6 nM.
Turning to `C[C@@H]1[C@H](c2c(F)ccc(F)c2F)C[C@H](NC(=O)c2nc3c(s2)CC2(C3)C(=O)Nc3ncccc32)C(=O)N1CC(F)(F)F` (stereo partly drawn) [Example 11, N-((3S,5S,6R)-6-methyl-2-oxo-1-(2,2,2-trifluoroethyl)-5-(2,3,6-trifluorophenyl)piperidin-3-yl)-2′-oxo-1′,2′,4,6-tetrahydrospiro[cyclopenta[d]thiazole-5,3′-pyrrolo[2,3-b]pyridine]-2-carboxamide], the IC50 stood at 11 nM.
The same measure, in the same setting: under `C[C@@H]1[C@H](c2c(F)ccc(F)c2F)C[C@H](NC(=O)c2nc3c(s2)CC2(CC3)C(=O)Nc3ncccc32)C(=O)N1CC(F)(F)F` (stereo partly drawn) [Example 9, N-((3S,5S,6R)-6-methyl-2-oxo-1-(2,2,2-trifluoroethyl)-5-(2,3,6-trifluorophenyl)piperidin-3-yl)-2′-oxo-1′,2′,4,7-tetrahydro-5H-spiro[benzo[d]thiazole-6,3′-pyrrolo[2,3-b]pyridine]-2-carboxamide] stands above 100 nM; under `C[C@@H]1[C@H](c2c(F)ccc(F)c2F)C[C@H](NC(=O)c2cc3c([nH]2)CC2(C3)C(=O)Nc3ncccc32)C(=O)N1CC(F)(F)F` (stereo partly drawn) [Example 10, N-((3S,5S,6R)-6-methyl-2-oxo-1-(2,2,2-trifluoroethyl)-5-(2,3,6-trifluorophenyl)piperidin-3-yl)-2′-oxo-1′,2′,4,6-tetrahydro-1H-spiro[cyclopenta[b]pyrrole-5,3′-pyrrolo[2,3-b]pyridine]-2-carboxamide], 6.8 nM; under `C[C@@H]1[C@H](c2c(F)ccc(F)c2F)C[C@H](NC(=O)c2cc3c([nH]2)CCC2(C3)C(=O)Nc3ncccc32)C(=O)N1CC(F)(F)F` (stereo partly drawn) [Example 13, N-((3S,5S,6R)-6-methyl-2-oxo-1-(2,2,2-trifluoroethyl)-5-(2,3,6-trifluorophenyl)piperidin-3-yl)-2′-oxo-1,1′,2′,4,6,7-hexahydrospiro[indole-5,3′-pyrrolo[2,3-b]pyridine]-2-carboxamide], 0.89 nM.

A further test deals with T1, CGRP receptor. As to the kind of experiment: Inhibition of CGRP signaling pathway (cAMP, HTRF) in CHO-K1 cells expressing human CGRP receptors. Type of test: cell-based. On the set-up: host or cells: CHO-K1. Particulars: [α-CGRP]=10 ng/ml; increase in cAMP levels; read-out: IC50 of the inhibitory effect on the CGRP signaling pathway in CHO-K1 cells expressing human CGRP receptors. How it is done: as §1
CHO-K1 cells expressing human CGRP receptor (CGRPR/CHO-K1, PerkinElmer, ES-420-C) were cultured in F12K+10% FBS+400 μg/mL G418+10 μg/mL Blasticidin medium, and the cells were collected in the logarithmic growth phase. According to the instructions of the kit, the cells were resuspended in Stimulation Buffer comprising 0.5 mM IBMX, and 5 μL of the cell suspension was added to each well of a 96-well microplate (Cisbio, 66PL96025) at a cell density of 15,000 cells/well. 2.5 μL of gradient diluted compound solution was added to each well. After incubation at 37° C. for 30 minutes, 2.5 μL of 40 ng/ml human α-CGRP (Bachem, H-1470,0500) diluted in Stimulation Buffer comprising 0.5 mM IBMX was added to each well to a final concentration of 10 ng/ml. After incubation at 37° C. for 30 minutes, 5 μL of Anti-cAMP-Cryptate solution and 5 μL of cAMP-d2 solution were added to each well. After incubation at room temperature for 60 minutes, the HTRF signal was read using a microplate reader (Molecular Devices). Graphpad Prism was used to calculate the IC50 value of the compound's inhibitory effect on the increase in cAMP levels based on the compound concentration and HTRF signal.
Take `CC1C(c2c(F)ccc(F)c2F)CC(NC(=O)c2cc3c(s2)CCC2(C3)C(=O)Nc3ncccc32)C(=O)N1CC(F)(F)F` (stereo not shown) [Example 2, N-(6-methyl-2-oxo-1-(2,2,2-trifluoroethyl)-5-(2,3,6-trifluorophenyl)piperidin-3-yl)-2′-oxo-1′,2′,6,7-tetrahydro-4H-spiro[benzo[b]thiophene-5,3′-pyrrolo[2,3-b]pyridine]-2-carboxamide]: the IC50 was 250 nM.
On the same count and under the same terms, to `CC1C(c2c(F)ccc(F)c2F)CC(NC(=O)c2cc3c(o2)CC2(C3)C(=O)Nc3ncccc32)C(=O)N1CC(F)(F)F` (stereo not shown) [Example 4, N-(6-methyl-2-oxo-1-(2,2,2-trifluoroethyl)-5-(2,3,6-trifluorophenyl)piperidin-3-yl)-2′-oxo-1′,2′,4,6-tetrahydrospiro[cyclopenta[b]furan-5,3′-pyrrolo[2,3-b]pyridine]-2-carboxamide] belongs 199 nM; to `CC1C(c2c(F)ccc(F)c2F)CC(NC(=O)c2cc3c(o2)CCC2(C3)C(=O)Nc3ncccc32)C(=O)N1CC(F)(F)F` (stereo not shown) [Example 1, N-(6-methyl-2-oxo-1-(2,2,2-trifluoroethyl)-5-(2,3,6-trifluorophenyl)piperidin-3-yl)-2′-oxo-1′,2′,6,7-tetrahydro-4H-spiro[benzofuran-5,3′-pyrrolo[2,3-b]pyridine]-2-carboxamide], 106 nM.
Same read-out and setting: to `CC1C(c2c(F)ccc(F)c2F)CC(NC(=O)c2cc3c(s2)CC2(C3)C(=O)Nc3ncccc32)C(=O)N1CC(F)(F)F` (stereo not shown) [Example 3, N-(6-methyl-2-oxo-1-(2,2,2-trifluoroethyl)-5-(2,3,6-trifluorophenyl)piperidin-3-yl)-2′-oxo-1′,2′,4,6-tetrahydrospiro[cyclopenta[b]thiophene-5,3′-pyrrolo[2,3-b]pyridine]-2-carboxamide] belongs 64.7 nM.

Another test has as its target T1, CGRP receptor. The experiment in a line: Affinity for human CGRP receptor ([125I]h-CGRPα competition, CHO cell membranes). On the set-up: host or cells: CHO-K1. The settings on record: 0.03 nM [125I]h-CGRPα; Cheng Prusoff; read-out: Ki of the affinity determination to human CGRP receptor. In kind it is binding. How it is done:
The cell membrane homogenate of CHO cells expressing human CGRP receptor (comprising 16 μg of protein) was incubated with 0.03 nM [^125I]h-CGRPα and gradiently diluted test samples in buffer (50 mM Hepes-NaOH (pH 7.4), 10 mM MgCl2, 4 mM KCl, 10 mM […], 1 mM EDTA, 1 μM phosphorylation amide, 0.3% BSA and 0.04% bacitracin) at 22° C. for 90 minutes. A control group without the test sample was set up to obtain the highest binding signal of the experiment, and the non-specific binding of the experiment was determined by adding 1 μM non-isotope-labeled h-CGRPα to the control group. After the incubation, a glass fiber filter (GF/B, Packard) soaked with 0.3% PEI was placed in a 96-well cell collector (Unfilter, Packard), and the sample was quickly filtered under vacuum and rinsed several times with precooled buffer comprising 50 mM Tris-HCl and 150 mM NaCl. After the filter was dried, scintillation fluid (Microscint 0, Packard) was added and the radioactive signal value was measured using a scintillation counter (Topcount, Packard). The results are expressed as the percentage of inhibition of specific binding of the radioligand. Non-isotope labeled h-CGRPα was used as a standard sample as a control. The test samples and standard samples were tested at multiple concentrations to obtain a competition curve with [^125I]h-CGRPα, thereby calculating the IC50) 20 of each sample. The inhibition constant Ki was further calculated using the Cheng Prusoff equation: Ki=IC50/(1+L/KD), wherein L represents the concentration of [^125I]h-CGRPα in the system (0.03 nM), and KD represents the dissociation constant between [^125I]h-CGRPα and the human CORP receptor in the system (0.06 nM).
The term Ki denotes the equilibrium dissociation constant of an inhibitor or competing ligand from its target. Take `C[C@@H]1[C@H](c2ccccc2)C[C@H](NC(=O)c2cnc3c(c2)C[C@@]2(C3)C(=O)Nc3ncccc32)C(=O)N1CC(F)(F)F` [Ubrogepant, reference compound]: the Ki amounted to 0.027 nM.
